Experimental data reported in patent US20220160843A1 (priority 2019, published 2022).
Like-named read-outs stand apart in the source and are kept apart here.

How the values were obtained:
[1] = test system: carbapenem-resistant P. aeruginosa strains; assay: Resensitization of carbapenem-resistant clinical strains using carbapenems in combination with lysins; format: cell-based; conditions: for MIC: Pseudomonas aeruginosa, meropenem alone (GN121 checkerboard)
Description: The checkerboard assays is based on a modification of the CLSI method for MIC determination by broth microdilution (26, 29). Checkerboards were constructed by first preparing columns of a 96-well polypropylene microtiter plate, in which each well had the same amount of antibiotic diluted 2-fold along the horizontal axis. […] Summation fractional inhibitory concentrations (ΣFICs) were calculated for each drug and the minimum ΣFIC value (ΣFICmin) was used to determine synergy. ΣFICs were calculated as follows: ΣFIC=FIC A+FIC B, where FIC A is the MIC of each antibiotic in the combination/MIC of each antibiotic alone, and FIC B is the MIC of each GN lysin in the combination/MIC of each GN lysin alone. The combination is considered synergistic when the ΣFIC is ≤0.5, strongly additive when the ΣFIC is >0.5 to <1, additive with the ΣFIC is 1−<2, and antagonistic when the ΣFIC is ≥2.
Up to seven carbapenem-resistant isolates were assessed. […] See Clinical and Laboratory Standards Institute (CLSI), CLSI. […] M100 Performance Standards for Antimicrobial Susceptibility Testing; 29th Edition. Clinical and Laboratory Standards Institute, Wayne, Pa.

[2] = test system: P. aeruginosa; assay: Minimal inhibitory concentration (MIC), modified CLSI broth microdilution in CAA or CAA/HuS; format: cell-based, Pseudomonas aeruginosa; conditions: for MIC (μg/mL) in CAA: CAA media; for MIC (μg/mL in CAA/HuS) / MIC value in CAA/HuS: CAA supplemented with 25% human serum
[3] = test system: P. aeruginosa strain ATCC 17647; assay: Minimal Biofilm Eradicating Concentration (MBEC), Calgary Biofilm Device; format: cell-based, Pseudomonas aeruginosa; conditions: 24 h biofilm, 24 h treatment; minimum concentration removing >95% of biofilm biomass (crystal violet)
Text: All samples were examined in triplicate.

[4] = test system: P. aeruginosa; assay: Time-kill assay of GN lysin activity; format: cell-based, Pseudomonas aeruginosa; conditions: lysin 10 μg/mL, T = 0 7.8; for Log10 CFU/mL T = 3 hr: buffer control 7.2, limit of detection 3.7; for Log10 CFU/mL T = l hr: buffer control 7.7
Description: All treatments were incubated at 37° C. with aeration.

[5] = CAA/HuS, ‡ indicates bactericidal activity
[6] = HEPES buffer, ‡ indicates bactericidal activity

Molecule: C[C@@H](O)[C@H]1C(=O)N2C(C(=O)O)=C(SCCN=CN)C[C@H]12 [Imipenem, imipenem, reference compound]
- IMIPENEM MIC Combination ([1]; isolate PA19, imipenem in combination with GN121): 1 (S) μg/mL
- IMIPENEM MIC Combination ([1]; isolate PA19, imipenem in combination with GN123): 0.5 (S) μg/mL
- IMIPENEM MIC Combination ([1]; isolate PA20, imipenem in combination with GN121): 0.5 (S) μg/mL
- IMIPENEM MIC Combination ([1]; isolate PA20, imipenem in combination with GN123): 1 (S) μg/mL
- IMIPENEM MIC Combination ([1]; isolate PA21, imipenem in combination with GN121): 1 (S) μg/mL
- IMIPENEM MIC Combination ([1]; isolate PA21, imipenem in combination with GN123): 0.5 (S) μg/mL
- IMIPENEM MIC Combination ([1]; isolate PA22, imipenem in combination with GN121): 2 (S) μg/mL
- IMIPENEM MIC Combination ([1]; isolate PA22, imipenem in combination with GN123): 2 (S) μg/mL
- IMIPENEM MIC Combination ([1]; isolate PA23, imipenem in combination with GN123): 0.25 (S) μg/mL
- IMIPENEM MIC Combination ([1]; isolate PA24, imipenem in combination with GN121): 1 (S) μg/mL
- IMIPENEM MIC Combination ([1]; isolate PA24, imipenem in combination with GN123): 2 (S) μg/mL
- IMIPENEM MIC Combination ([1]; isolate WC-452, imipenem in combination with GN123): 1 (S) μg/mL

Molecule: C[C@@H](O)[C@H]1C(=O)N2C(C(=O)O)=C(S[C@@H]3CN[C@H](C(=O)N(C)C)C3)[C@H](C)[C@H]12 [Meropenem, meropenem, reference compound]
- MIC ([1]; GN121, read-out: Meropenem MIC Alone, isolate PA19): 32 µg/mL
- MIC ([1]; GN121, read-out: Meropenem MIC Alone, isolate PA21): 32 µg/mL
- MIC ([1]; GN121, read-out: Meropenem MIC Alone, isolate PA22): 16 µg/mL
- MIC ([1]; GN121, read-out: Meropenem MIC Alone, isolate PA23): 16 µg/mL
- MIC ([1]; GN121, read-out: Meropenem MIC Alone, isolate PA24): 32 µg/mL
- MIC ([1]; GN121, read-out: Meropenem MIC Alone, isolate WC-452): 16 µg/mL
- Meropenem MIC Combination ([1]; isolate PA19, meropenem in combination with GN121): 1 µg/mL
- Meropenem MIC Combination ([1]; isolate PA19, meropenem in combination with GN123): 0.5 (S) μg/mL
- Meropenem MIC Combination ([1]; isolate PA20, meropenem in combination with GN121): 1 µg/mL
- Meropenem MIC Combination ([1]; isolate PA20, meropenem in combination with GN123): 0.5 (S) μg/mL
- Meropenem MIC Combination ([1]; isolate PA21, meropenem in combination with GN121): 2 µg/mL
- Meropenem MIC Combination ([1]; isolate PA21, meropenem in combination with GN123): 1 (S) μg/mL
- Meropenem MIC Combination ([1]; isolate PA22, meropenem in combination with GN121): 1 µg/mL
- Meropenem MIC Combination ([1]; isolate PA22, meropenem in combination with GN123): 1 (S) μg/mL
- Meropenem MIC Combination ([1]; isolate PA23, meropenem in combination with GN121): 2 µg/mL
- Meropenem MIC Combination ([1]; isolate PA23, meropenem in combination with GN123): 0.5 (S) μg/mL
- Meropenem MIC Combination ([1]; isolate PA24, meropenem in combination with GN121): 1 µg/mL
- Meropenem MIC Combination ([1]; isolate PA24, meropenem in combination with GN123): 2 (S) μg/mL
- Meropenem MIC Combination ([1]; isolate WC-452, meropenem in combination with GN121): 1 µg/mL
- Meropenem MIC Combination ([1]; isolate WC-452, meropenem in combination with GN123): 1 (S) μg/mL

B1: GN54: Modified GN4, N-terminal peptide KRKKRKKRK with linker, SEQ ID NO: 8 (protein)
chain: KRKKRKKRKAGAGAGAGAGAGAGAGASMRTSQRGIDLIKSFEGLRLSAYQDSVGVWTIGYGTTRGVTRYMTITVEQAERMLSNDIQRFEPELDRLAKVPLNQNQWDALMSFVYNLGAANLASSTLLKLLNKGDYQGAADQFPRWVNAGGKRLDGLVKRRAAERALFLEPLS
- MIC (μg/mL) in CAA [2]: 64 µg/mL
- MIC (μg/mL in CAA/HuS) [2]: 2 µg/mL
- MIC value in CAA/HuS [2]: 2 µg/mL
- activity in serum ([2]; human serum): does have activity in serum

B2: GN146: Modified GN4, amino acid substitutions (K99D, R115H), SEQ ID NO: 4 (protein)
chain: MRTSQRGIDLIKSFEGLRLSAYQDSVGVWTIGYGTTRGVTRYMTITVEQAERMLSNDIQRFEPELDRLAKVPLNQNQWDALMSFVYNLGAANLASSTLLDLLNKGDYQGAADQFPHWVNAGGKRLDGLVKRRAAERALFLEPLS
- MIC (μg/mL) in CAA [2]: 2 µg/mL
- MIC (μg/mL in CAA/HuS) [2]: 2 µg/mL
- MIC value in CAA/HuS [2]: 2 µg/mL
- MBEC [3]: 2 µg/mL
- Log10 CFU/mL T = 3 hr [4, 5]: 4.0‡ Log10 CFU/mL
- Log10 CFU/mL T = l hr ([4]; CAA/HuS): 5.9 Log10 CFU/mL
- Log10 CFU/mL T = 3 hr [4, 6]: <3.7‡ Log10 CFU/mL
- Log10 CFU/mL T = l hr [4, 6]: 6.7 Log10 CFU/mL

B3: GN94: Modified GN37, N-terminal peptide KFFKFFKFFK with linker, SEQ ID NO: 14 (protein)
chain: KFFKFFKFFKAGAGAGAGAGAGAGAGASMTYTLSKRSLDNLKGVHPDLVAVVHRAIQLTPVDFAVIEGLRSVSRQKELVAAGASKTMNSRHLTGHAVDLAAYVNGIRWDWPLYDAIAVAVKAAAKELGVAIVWGGDWTTFKDGPHFELDRSKYR
- MIC (μg/mL) in CAA [2]: 16 µg/mL
- MIC (μg/mL in CAA/HuS) [2]: 2 µg/mL
- MIC value in CAA/HuS [2]: 2 µg/mL
- MBEC [3]: 2 µg/mL
- Log10 CFU/mL T = 3 hr [4, 5]: <3.7‡ Log10 CFU/mL
- Log10 CFU/mL T = l hr ([4]; CAA/HuS): 6.4 Log10 CFU/mL
- Log10 CFU/mL T = 3 hr [4, 6]: <3.7‡ Log10 CFU/mL
- Log10 CFU/mL T = l hr [4, 6]: 6.0 Log10 CFU/mL
